Measurements as given in patent US20210171948A1, “COMPOSITIONS AND METHODS FOR TARGETING GLYPICAN-2 IN THE TREATMENT OF CANCER” (Shepherd Therapeutics, Inc., priority 2019, published 2021).
Strand notation (5' to 3'): a small letter for the sugar, then the base; units joined by * are phosphorothioate-linked, units joined directly phosphodiester-linked; [ ] holds rarer units or linkages, { } end groups; capitals alone tell only the bases. d = 2'-deoxy (DNA); r = 2'-OH (RNA)

Key:
GPC2 mRNA [1] = assay: GPC2 mRNA knockdown in neuroblastoma cell lines, representative data from a separate experiment (Tables 10-14); format: cell-based, human; set-up: concentration or dose not given beside the values
GPC2 mRNA [2] = assay: GPC2 mRNA knockdown in neuroblastoma cell lines (Example 4); format: cell-based, human
Method: GPC2 mRNA knockdown was assessed in multiple neuroblastoma cell lines. Cells were transfected with either a scrambled control siRNA, with GPC2 siRNA sequences 3 or 5 from Table 7, or with siRNA sequences generated by Dharmacon (sequences 12-15 from Table 7) using the RNAiMAX Lipofectamine kit (Invitrogen, Carlsbad, Calif.) as previously described. Following a 96 hour incubation period, total RNA samples were collected to compare knockdown efficiency and viability was measured in parallel plated cells.
The extent of GPC2 mRNA reduction was assessed with additional GPC2 siRNA sequences in the CHP212 neuroblastoma cell line. Cells were transfected with either a scrambled control siRNA or with GPC2 siRNA sequences 3 or 5, or with siRNA sequences 6-11 (Sigma) using the RNAiMAX Lipofectamine kit (Invitrogen, Carlsbad, Calif.) as previously described. Following a 96 hour incubation period, total RNA samples were collected and viability was measured in parallel plated cells.
The extent of GPC2 mRNA reduction (knockdown) and corresponding protein level expression changes were assessed in three neuroblastoma cell lines following siRNA knockdown of GPC2. The CHP212 neuroblastoma cell line (FIG. 5A and FIG. 5D), the SH-SY5Y neuroblastoma cell line (FIG. 5B and FIG. 5E) and the CHLA90 neuroblastoma cell line (FIG. 5C and FIG. 5F) were transfected with GPC2 siRNA sequences 5 and 7 from Table 7 and a scrambled control siRNA using the RNAiMAX Lipofectamine kit (Invitrogen, Carlsbad, Calif.) as previously described. Following a 24, 48, or 72 hour incubation period, cells were washed and total RNA was isolated for measuring GPC2 mRNA expression. For protein analysis, cells were fixed, immunostained using an antibody against GPC2 protein, protein expression was measured via flow cytometry. As shown, GPC2 mRNA knockdown was observed beginning at the 24 hr time point and lasted for at least 72 hours. GPC2 protein expression started to decrease at the 48 hr time point.

CHP212 cells [3] = assay: Cyclophosphamide IC50 in siRNA-transfected cells, Cell Titer Glo 2.0 viability (Example 7); format: cell-based
Method: (§1) GPC2 mRNA expression was reduced with the indicated siRNAs and changes in cell viability were assessed in multiple neuroblastoma cell lines. Cells were transfected with either a control siRNA or with GPC2 siRNA sequences 3, 5 or 7 from Table 7 using the RNAiMAX Lipofectamine kit (Invitrogen, Carlsbad, Calif.) as previously described in 96 wells for viability assays. Cyclophosphamide was added at increasing concentrations (0-20 uM) to transfected cells at 24 hr post transfection. Following a 72 hour incubation period, viability measurements were made using Cell Titer Glo 2.0.

SK-N-BE2 cells [4] = assay: as above; format: cell-based
Method: as §1

CHLA-90 cells [5] = assay: as above; format: cell-based
Method: as §1

SH-SY5Y cells [6] = assay: as above; format: cell-based
Method: as §1

CHP212 cells [7] = assay: Carboplatin IC50 in siRNA-transfected cells, Cell Titer Glo 2.0 viability (Example 6); format: cell-based
Method: (§2) GPC2 mRNA expression was reduced using the indicated siRNAs and changes in cell viability were assessed in multiple neuroblastoma cell lines. Cells were transfected with either a control siRNA or with GPC2 siRNA sequences 3, 5 or 7 from Table 7 using the RNAiMAX Lipofectamine kit (Invitrogen, Carlsbad, Calif.) as previously described in 96 wells for viability assays. Carboplatin was added at increasing concentrations (0 to 150 uM) to transfected cells at 24 hours post transfection. Following a 72 hour incubation period, viability measurements were made using Cell Titer Glo 2.0.

SK-N-BE2 cells [8] = assay: as above; format: cell-based
Method: as §2

CHLA-90 cells [9] = assay: as above; format: cell-based
Method: as §2

SH-SY5Y cells [10] = assay: as above; format: cell-based
Method: as §2

CHP212 cells [11] = assay: Etoposide IC50 in siRNA-transfected cells, Cell Titer Glo 2.0 viability (Example 9); format: cell-based; settings: CHP212 cells transfected with the labelled siRNA; etoposide added 24 hours post transfection, 72 hour incubation
Method: (§3) GPC2 mRNA expression was reduced and changes in cell viability were assessed in multiple neuroblastoma cell lines. Cells were transfected with either a control siRNA or with GPC2 siRNA sequences 3, 5 or 7 from Table 7 using the RNAiMAX Lipofectamine kit (Invitrogen, Carlsbad, Calif.) as previously described in 96 wells for viability assays. Etoposide was added at increasing concentrations (0-15 uM) to transfected cells at 24 hours post transfection. Following a 72 hour incubation period, viability measurement were made using Cell Titer Glo 2.0.

SK-N-BE2 cells [12] = assay: as above; format: cell-based
Method: as §3

CHLA-90 cells [13] = assay: as above; format: cell-based
Method: as §3

SH-SY5Y cells [14] = assay: as above; format: cell-based
Method: as §3

GPC2 siRNA 7: siRNA duplex: sense CUCCUUUCUGGUUCACACA[dT][dT] (SEQ ID NO: 215), anti-sense UGUGUGAACCAGAAAGGAG[dT][dT] (SEQ ID NO: 216) (sense rCrUrCrCrUrUrUrCrUrGrGrUrUrCrArCrArCrAdTdT; antisense rUrGrUrGrUrGrArArCrCrArGrArArArGrGrArGdTdT; listed as Homo sapiens)
% KD; percent GPC2 mRNA reduction (knockdown) (GPC2 mRNA [1]; CHLA-90, compared to scrambled siRNA control): 65%
% KD; percent GPC2 mRNA reduction (knockdown) (GPC2 mRNA [1]; CHLA-136, compared to scrambled siRNA control): 30%
% KD; percent GPC2 mRNA reduction (knockdown) (GPC2 mRNA [1]; CHLA-172, compared to scrambled siRNA control): 20%
% KD; percent GPC2 mRNA reduction (knockdown) (GPC2 mRNA [1]; CHP212, compared to scrambled siRNA control): 70%
% KD; percent GPC2 mRNA reduction (knockdown) (GPC2 mRNA [1]; KELLY, compared to scrambled siRNA control): 73%
% KD; percent GPC2 mRNA reduction (knockdown) (GPC2 mRNA [1]; SH-SY5Y, compared to scrambled siRNA control): 70%
% KD; percent GPC2 mRNA reduction (knockdown) (GPC2 mRNA [1]; SK-N-BE2, compared to scrambled siRNA control): 69%
% KD; percent GPC2 mRNA reduction (knockdown) (GPC2 mRNA [1]; SKNAS, compared to scrambled siRNA control): 64%
Time for which reduced GPC2 mRNA expression was sustained (GPC2 mRNA [2]; CHLA90 neuroblastoma cells (FIG. 5C)): 72 h
Time point at which GPC2 mRNA knockdown was first observed (GPC2 mRNA [2]; CHP212, SH-SY5Y and CHLA90 neuroblastoma cell lines): 24 h
Degree of GPC2 knockdown among sequences 3, 5, 6-11 (GPC2 mRNA [2]; CHP212 neuroblastoma cell line, 96 hour incubation (FIG. 4A)): greater
Time for which reduced GPC2 mRNA expression was sustained (GPC2 mRNA [2]; CHP212 neuroblastoma cells (FIG. 5A)): 72 h
Time for which reduced GPC2 mRNA expression was sustained (GPC2 mRNA [2]; SH-SY5Y neuroblastoma cells (FIG. 5B)): 72 h
Data Summary: effect of knockdown on sensitivity to cyclophosphamide (CHP212 cells [3]; CHP212): increases sensitivity to
IC50 (CHP212 cells [3]; CHP212 cells transfected with the labelled siRNA, cyclophosphamide added 24 hr post transfection, 72 hour incubation): 1200 nM
Data Summary: effect of knockdown on sensitivity to cyclophosphamide (SK-N-BE2 cells [4]; SK-N-BE2): increases sensitivity to
IC50 (SK-N-BE2 cells [4]; SK-N-BE2 cells transfected with the labelled siRNA, cyclophosphamide added 24 hr post transfection, 72 hour incubation): 410 nM
Data Summary: effect of knockdown on sensitivity to cyclophosphamide (CHLA-90 cells [5]; CHLA-90): increases sensitivity to
IC50 (CHLA-90 cells [5]; CHLA-90 cells transfected with the labelled siRNA, cyclophosphamide added 24 hr post transfection, 72 hour incubation): 10000 nM
Data Summary: effect of knockdown on sensitivity to cyclophosphamide (SH-SY5Y cells [6]; SH-SY5Y): increases sensitivity to
IC50 (SH-SY5Y cells [6]; SH-SY5Y cells transfected with the labelled siRNA, cyclophosphamide added 24 hr post transfection, 72 hour incubation): 940 nM
Data Summary: effect of knockdown on sensitivity to carboplatin (CHP212 cells [7]; CHP212): increases sensitivity to
IC50 (CHP212 cells [7]; CHP212 cells transfected with the labelled siRNA, carboplatin added 24 hours post transfection, 72 hour incubation): 8140 nM
Data Summary: effect of knockdown on sensitivity to carboplatin (SK-N-BE2 cells [8]; SK-N-BE2): increases sensitivity to
IC50 (SK-N-BE2 cells [8]; SK-N-BE2 cells transfected with the labelled siRNA, carboplatin added 24 hours post transfection, 72 hour incubation): 2500 nM
Data Summary: effect of knockdown on sensitivity to carboplatin (CHLA-90 cells [9]; CHLA-90): increases sensitivity to
IC50 (CHLA-90 cells [9]; CHLA-90 cells transfected with the labelled siRNA, carboplatin added 24 hours post transfection, 72 hour incubation): 15000 nM
Data Summary: effect of knockdown on sensitivity to carboplatin (SH-SY5Y cells [10]; SH-SY5Y): increases sensitivity to
IC50 (SH-SY5Y cells [10]; SH-SY5Y cells transfected with the labelled siRNA, carboplatin added 24 hours post transfection, 72 hour incubation): 470 nM
IC50 (CHP212 cells [11]): 20 nM
Data Summary: effect of knockdown on sensitivity to etoposide (SK-N-BE2 cells [12]; SK-N-BE2): 7 increases sensitivity to etoposide
IC50 (SK-N-BE2 cells [12]; SK-N-BE2 cells transfected with the labelled siRNA, etoposide added 24 hours post transfection, 72 hour incubation): 200 nM
Data Summary: effect of knockdown on sensitivity to etoposide (CHLA-90 cells [13]; CHLA-90): increases sensitivity to etoposide
IC50 (CHLA-90 cells [13]; CHLA-90 cells transfected with the labelled siRNA, etoposide added 24 hours post transfection, 72 hour incubation): 130 nM
Data Summary: effect of knockdown on sensitivity to etoposide (SH-SY5Y cells [14]; SH-SY5Y): 7 increases sensitivity to etoposide
IC50 (SH-SY5Y cells [14]; SH-SY5Y cells transfected with the labelled siRNA, etoposide added 24 hours post transfection, 72 hour incubation): 30 nM
